Laboratory results published in patent US11472805B2, “Tricyclic compounds and their use as phosphodiesterase inhibitors” (Pfizer Inc., priority 2015, dated 2022).
Where two headings read alike, the source gives them in different places.

Columns and labels:
Format in all cases: biochemical
Human PDE4B1 = Human PDE4B1 (Homo sapiens (Human), UniProt Q07343, S133E/S654A/S659A/S661A); assay: PDE4B1 Scintillation Proximity Assay (SPA), inhibition of enzyme activity; conditions: read-out: Human PDE4B FL
Chain of Human PDE4B1 (Q07343 122-736 S133E/S654A/S659A/S661A): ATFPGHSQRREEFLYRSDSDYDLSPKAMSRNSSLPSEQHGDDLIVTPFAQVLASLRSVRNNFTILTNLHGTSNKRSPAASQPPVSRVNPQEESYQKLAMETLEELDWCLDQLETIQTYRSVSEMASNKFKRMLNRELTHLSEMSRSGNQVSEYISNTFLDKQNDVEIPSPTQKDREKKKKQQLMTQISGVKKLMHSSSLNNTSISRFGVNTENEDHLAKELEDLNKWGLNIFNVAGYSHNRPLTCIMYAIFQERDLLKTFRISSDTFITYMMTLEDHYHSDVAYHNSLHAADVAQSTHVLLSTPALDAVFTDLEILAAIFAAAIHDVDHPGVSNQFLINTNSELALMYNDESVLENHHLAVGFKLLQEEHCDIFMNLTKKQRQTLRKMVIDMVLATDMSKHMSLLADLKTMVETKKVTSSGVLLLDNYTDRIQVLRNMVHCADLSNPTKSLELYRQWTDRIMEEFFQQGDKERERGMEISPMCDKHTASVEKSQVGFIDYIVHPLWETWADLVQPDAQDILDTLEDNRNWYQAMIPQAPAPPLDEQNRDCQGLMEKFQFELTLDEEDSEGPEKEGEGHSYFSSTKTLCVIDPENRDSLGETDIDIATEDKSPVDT
Method: (§1) The PDE4A, PDE4B, PDE4C and PDE4D binding affinity for the compounds of the present invention was determined utilizing the following biological assay(s):
The recombinant Bacmid was isolated and used to transfect insect cells to generate a viral stock. To generate cell paste for purification, insect cells were infected with the virus stock and cells were harvested 72 hours after infection as described in Seeger, T. F. et al., Brain Research 985 (2003) 113-126. Insect cell paste was lysed and after centrifugation, the supernatant was chromatographed on Ni-NTA agarose (Qiagen) as described in Seeger, T. F. et al., Brain Research 985 (2003) 113-126. Ni-NTA agarose eluting fractions containing PDE4 were pooled, diluted with Q buffer A (20 mM Tris HCl pH 8, 5% glycerol, 1 mM TCEP) to reduce NaCl to ˜100 mM and loaded on a Source 15Q (GE Healthcare) column. After washing with Q buffer A/10% buffer B to baseline, PDE4D was eluted with a gradient from 10% to 60% of Buffer B (20 mM Tris HCl pH 8, 1 M NaCl, 5% glycerol, 1 mM TCEP). PDE4D fractions were analyzed by SDS-PAGE Coomassie blue staining, pooled based on purity, frozen and stored at −80° C.
(§2) The PDE4A3, PDE4B1, PDE4C1 and PDE4D3 assays use the Scintillation Proximity Assay (SPA) technology to measure the inhibition of human recombinant PDE4A1, PDE4B3, PDE4C1, and PDE4D3 enzyme activity by compounds in vitro. The PDE4A1, PDE4B3, PDE4C1, and PDE4D3 assays are run in parallel using identical parameters, except for the concentration of enzyme ([…]). The assays are performed in a 384-well format with 50 uL assay buffer (50 mM TRIS pH7.5; 1.3 mM MgCl2; 0.01% Brij) containing enough PDE4A3, PDE4B1, PDE4C1, and PDE4D to convert ˜20% of substrate (1 μM cAMP consisting of 20 nM 3H-cAMP+[…] cold cAMP) and a range of inhibitors. Reactions are incubated for 30 min at 25° C. The addition of 20 uL of 8 mg/ml yitrium silicate SPA beads (Perkin Elmer) stops the reaction. The plates are sealed (TopSeal, Perkin Elmer) and the beads are allowed to settle for 8 hrs, after which they are read on the Trilux Microbeta overnight.

Human PDE4C1 = Human PDE4C1 (Homo sapiens (Human), UniProt Q08493); assay: PDE4C1 Scintillation Proximity Assay (SPA), inhibition of enzyme activity; conditions: read-out: Human PDE4C FL
Chain of Human PDE4C1 (Q08493 2-712): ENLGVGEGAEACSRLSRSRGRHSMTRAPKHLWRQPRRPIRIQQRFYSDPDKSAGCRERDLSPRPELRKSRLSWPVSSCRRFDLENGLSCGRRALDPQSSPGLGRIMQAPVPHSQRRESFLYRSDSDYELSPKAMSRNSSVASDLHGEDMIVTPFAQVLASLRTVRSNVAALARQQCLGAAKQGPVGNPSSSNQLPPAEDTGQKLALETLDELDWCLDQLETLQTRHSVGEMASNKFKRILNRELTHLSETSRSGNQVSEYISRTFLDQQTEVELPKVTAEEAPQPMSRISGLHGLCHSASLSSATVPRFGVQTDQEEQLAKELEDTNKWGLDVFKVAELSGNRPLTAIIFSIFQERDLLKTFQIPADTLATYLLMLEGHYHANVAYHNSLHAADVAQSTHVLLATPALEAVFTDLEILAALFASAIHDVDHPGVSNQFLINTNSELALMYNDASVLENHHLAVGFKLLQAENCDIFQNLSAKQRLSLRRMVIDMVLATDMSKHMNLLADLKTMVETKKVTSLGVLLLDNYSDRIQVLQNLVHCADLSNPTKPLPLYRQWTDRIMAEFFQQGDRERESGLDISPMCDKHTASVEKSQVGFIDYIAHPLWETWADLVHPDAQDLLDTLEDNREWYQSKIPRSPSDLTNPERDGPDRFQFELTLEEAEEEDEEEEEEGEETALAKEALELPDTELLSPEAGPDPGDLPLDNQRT
Method: as §1
(§3) The recombinant Bacmid was isolated and used to transfect insect cells to generate a viral stock. To generate cell paste for purification, insect cells were infected with the virus stock and cells were harvested 72 hours after infection. Insect cell paste was lysed and after centrifugation, the supernatant was batch bound to Ni-NTA agarose (GE Healthcare) and eluted with 250 mM imidazole. This eluate was diluted with FLAG buffer (50 mM Tris HCL pH 7.5, 100 mM NaCl, 5% Glycerol, 1 mM TCEP with protease inhibitors) and batch bound to ant-FLAG M2 agarose (Sigma) overnight at 4° C. The agarose was packed into a column, washed with buffer and eluted with buffer containing elute using 250 ug/ml Flag-peptide. Fractions were analyzed using SDS-PAGE Coomassie blue staining and pooled based on purity. Pooled fractions were chromatographed on a S200 120 ml column (GE Healthcare) in 50 mM Tris HCL pH 7.5, 150 mM NaCl, 10% Glycerol, 2 mM TCEP with protease inhibitors. PDE4C1 fractions were analyzed by SDS-PAGE Coomassie blue staining, pooled based on purity, dialyzed against 50 mM Tris HCL pH 7.5, 100 mM NaCl, 20% Glycerol, 2 mM TCEP, frozen and stored at −80° C.
as §2

Human PDE4A3 = Human PDE4A3 (Homo sapiens (Human), UniProt P27815); assay: PDE4A3 Scintillation Proximity Assay (SPA), inhibition of enzyme activity; conditions: read-out: Human PDE4A FL
Chain of Human PDE4A3 (P27815 other isoform, or with tags, fused parts or gaps): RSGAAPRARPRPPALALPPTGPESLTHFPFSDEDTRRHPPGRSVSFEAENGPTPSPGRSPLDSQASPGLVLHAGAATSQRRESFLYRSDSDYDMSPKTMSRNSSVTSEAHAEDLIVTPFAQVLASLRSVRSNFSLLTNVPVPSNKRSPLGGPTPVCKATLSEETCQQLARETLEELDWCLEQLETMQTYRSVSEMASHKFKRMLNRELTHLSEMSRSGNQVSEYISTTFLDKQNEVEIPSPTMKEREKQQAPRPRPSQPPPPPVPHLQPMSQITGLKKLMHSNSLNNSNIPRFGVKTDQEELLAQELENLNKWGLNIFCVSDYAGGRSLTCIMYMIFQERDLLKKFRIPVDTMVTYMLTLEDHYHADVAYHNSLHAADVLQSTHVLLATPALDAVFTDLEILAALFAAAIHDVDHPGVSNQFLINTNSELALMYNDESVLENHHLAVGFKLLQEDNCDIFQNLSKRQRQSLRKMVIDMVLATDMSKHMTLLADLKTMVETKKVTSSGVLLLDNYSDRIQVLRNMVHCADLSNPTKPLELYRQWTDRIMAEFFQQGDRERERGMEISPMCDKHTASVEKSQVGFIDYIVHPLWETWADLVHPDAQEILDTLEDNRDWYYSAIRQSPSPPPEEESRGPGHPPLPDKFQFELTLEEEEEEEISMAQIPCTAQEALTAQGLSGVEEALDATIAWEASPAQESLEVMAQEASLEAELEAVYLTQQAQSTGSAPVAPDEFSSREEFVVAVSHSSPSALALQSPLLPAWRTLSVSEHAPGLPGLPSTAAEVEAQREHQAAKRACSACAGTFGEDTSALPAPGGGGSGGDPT
Method: as §1
as §3, with “PDE4A3” for “PDE4C1”
as §2

human PDE4D3 = human PDE4D3 (Homo sapiens (Human), UniProt Q08499); assay: PDE4D3 Scintillation Proximity Assay (SPA), inhibition of enzyme activity; conditions: read-out: Human PDE4D FL
Chain of human PDE4D3 (Q08499 186-808): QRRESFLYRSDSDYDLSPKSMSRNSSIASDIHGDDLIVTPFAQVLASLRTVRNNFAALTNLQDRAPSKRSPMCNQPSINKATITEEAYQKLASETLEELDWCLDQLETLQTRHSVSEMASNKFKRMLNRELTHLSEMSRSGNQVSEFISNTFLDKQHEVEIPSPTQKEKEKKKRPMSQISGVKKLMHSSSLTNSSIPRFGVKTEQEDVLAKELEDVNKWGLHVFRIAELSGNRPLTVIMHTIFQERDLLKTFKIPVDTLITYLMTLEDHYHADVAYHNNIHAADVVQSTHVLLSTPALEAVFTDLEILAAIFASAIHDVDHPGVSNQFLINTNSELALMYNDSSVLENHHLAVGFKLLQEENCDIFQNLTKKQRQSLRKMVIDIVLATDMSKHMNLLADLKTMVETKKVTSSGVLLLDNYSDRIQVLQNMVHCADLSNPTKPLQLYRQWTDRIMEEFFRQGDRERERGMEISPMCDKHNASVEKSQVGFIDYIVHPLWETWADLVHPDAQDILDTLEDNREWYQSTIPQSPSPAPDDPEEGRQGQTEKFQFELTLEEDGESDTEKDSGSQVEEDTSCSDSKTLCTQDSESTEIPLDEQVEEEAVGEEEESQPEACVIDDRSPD
Method: as §1
A portion of the human PDE4D3 coding sequence (amino acids 50 to 672 from the sequence with accession number Q08499-2) was cloned into the baculovirus expression vector pFastBac (Invitrogen) engineered to include a C-terminal His6 affinity tag to aid in purification as described in Seeger, T. F. et al., Brain Research 985 (2003) 113-126. The recombinant Bacmid was isolated and used to transfect insect cells to generate a viral stock. To generate cell paste for purification, insect cells were infected and cells were harvested 72 hours after infection. Insect cell paste was lysed and after centrifugation, the supernatant was chromatographed on Ni-NTA agarose (Qiagen) as described in Seeger, T. F. et al., Brain Research 985 (2003) 113-126. Ni-NTA agarose eluting fractions containing PDE4 were pooled, diluted with Q Buffer A (50 mM Tris HCl pH 8, 4% glycerol, 100 mM NaCl, 1 mM TCEP, Protease inhibitors EDTA-free (Roche)) to reduce NaCl to ˜200 mM, and loaded on a Q Sepharose (GE Healthcare) column. After washing with Q buffer A to baseline, PDE4D was eluted with a gradient from 10% to 60% of Buffer B (50 mM Tris HCl pH 8, 1 M NaCl, 4% glycerol, 1 mM TCEP). PDE4D fractions were analyzed by SDS-PAGE Coomassie blue staining, pooled based on purity, frozen and stored at −80° C.
as §2

[1] = Table 10, geometric mean of 2-9 determinations unless otherwise indicated
[2] = Table 9, geometric mean of 2-9 determinations unless otherwise indicated

SMILES	IC50 (Human PDE4B1; [1])	IC50 (Human PDE4C1; [1])	IC50 (Human PDE4A3; [1])	IC50 (human PDE4D3; [1])	IC50 (Human PDE4B1; [2])	IC50 (Human PDE4C1; [2])	IC50 (Human PDE4A3; [2])	IC50 (human PDE4D3; [2])
CCNC(=O)N1CCn2c(c(-c3ccc(Cl)cc3)c3ncccc32)C1=O [Example 80, 10-(4-Chlorophenyl)-N-ethyl-9-oxo-6,7-dihydropyrido[2′,3′:4,5]pyrrolo[1,2-a]pyrazine-8(9H)-carboxamide]	66.2 nM	106 nM	44 nM	42.8 nM	–	–	–	–
CCCc1cnc(N2CCn3c(c(-c4ccc(Cl)cc4)c4ncccc43)C2=O)nc1 [Example 95, 10-(4-Chlorophenyl)-8-(5-propylpyrimidin-2-yl)-7,8-dihydropyrido[2′,3′:4,5]pyrrolo[1,2-a]pyrazin-9(6H)-one]	1890 nM	649 nM	345 nM	1920 nM	–	–	–	–
O=C1c2c(-c3cc(F)ccc3F)c3ncccc3n2CCN1C1CC1 [Example 46, 8-Cyclopropyl-10-(2,5-difluorophenyl)-7,8-dihydropyrido[2′,3′:4,5]pyrrolo[1,2-a]pyrazin-9(6H)-one]	–	–	–	–	4.04 nM	6.98 nM	2.29 nM	203 nM
COc1ccc(-c2c3n(c4cccnc24)CCN(C2CC2)C3=O)cc1 [Example 44, 8-Cyclopropyl-10-(4-methoxyphenyl)-7,8-dihydropyrido[2′,3′:4,5]pyrrolo[1,2-a]pyrazin-9(6H)-one]	–	–	–	–	6.37 nM	86 nM	33 nM	212 nM
C[C@H]1Cn2c(c(-c3ccc(Cl)cc3)c3ncccc32)C(=O)N1C1CC1 [Example 11, (7S)-10-(4-Chlorophenyl)-8-cyclopropyl-7-methyl-7,8-dihydropyrido[2′,3′: 4,5]pyrrolo[1,2-a]pyrazin-9(6H)-one]	–	–	–	–	< 0.52 nM	< 0.57 nM	< 0.3 nM	28.7 nM
Cc1cc(Cl)c(F)cc1-c1c2c(n3c1C(=O)N(C1CC1)CC3)CCCO2 [Example 29, 10-(4-Chloro-5-fluoro-2-methylphenyl)-8-cyclopropyl-3,4,7,8-tetrahydro-2H-pyrano[2′,3′:4,5]pyrrolo[1,2-a]pyrazin-9(6H)-one]	–	–	–	–	1 nM	2.45 nM	1 nM	12.7 nM
C[C@@H]1Cn2c(c(-c3ccc(Cl)cc3)c3ncccc32)C(=O)N1C1CC1 [Example 10, (7R)-10-(4-Chlorophenyl)-8-cyclopropyl-7-methyl-7,8-dihydropyrido[2′,3′:4,5]pyrrolo[1,2-a]pyrazin-9(6H)-one]	–	–	–	–	12.2 nM	28.2 nM	15.5 nM	768 nM
CS(=O)(=O)c1cccc(-c2c3n(c4cccnc24)CCN(C2CC2)C3=O)c1 [Example 94, 8-Cyclopropyl-10-(3-(methylsulfonyl)phenyl)-7,8-dihydropyrido[2′,3′:4,5]pyrrolo[1,2-a]pyrazin-9(6H)-one]	467 nM	1050 nM	720 nM	858 nM	–	–	–	–
COc1c(F)cc(-c2c3n(c4cccnc24)CCN(C2CC2)C3=O)cc1F [Example 24, 8-Cyclopropyl-10-(3,5-difluoro-4-methoxyphenyl)-7,8-dihydropyrido[2′,3′:4,5]pyrrolo[1,2-a]pyrazin-9(6H)-one]	–	–	–	–	2.94 nM	24.5 nM	4.48 nM	125 nM
O=C1c2c(-c3ccc(Cl)c(F)c3)c3ncccc3n2CCN1C1CC1 [Example 32, 10-(4-Chloro-3-fluorophenyl)-8-cyclopropyl-7,8-dihydropyrido[2′,3′:4,5]pyrrolo[1,2-a]pyrazin-9(6H)-one]	–	–	–	–	< 0.7 nM	1.44 nM	< 0.45 nM	9.07 nM
N#Cc1ccc(-c2c3n(c4cccnc24)CCN(C2CC2)C3=O)cc1F [Example 4, 4-(8-Cyclopropyl-9-oxo-6,7,8,9-tetrahydropyrido[2′,3′:4,5]pyrrolo[1,2-a]pyrazin-10-yl)-2-fluorobenzonitrile]	–	–	–	–	< 0.81 nM	17 nM	4.66 nM	36.3 nM
O=C1c2c(-c3ccc(F)cc3F)c3ncccc3n2CCN1C1CC1 [Example 38, 8-Cyclopropyl-10-(2,4-difluorophenyl)-7,8-dihydropyrido[2′,3′:4,5]pyrrolo[1,2-a]pyrazin-9(6H)-one]	–	–	–	–	10.9 nM	21 nM	5.59 nM	569 nM
O=C1c2c(-c3ccc(Cl)cc3)c3ncccc3n2CC2CCN12 (single isomer, unassigned) [Example 68]	–	–	–	–	18.5 nM	26 nM	26 nM	538 nM
O=C1c2c(-c3ccc(Cl)cc3)c3ncccc3n2CC2COCCN12 (stereo not drawn) [Example 63, 13-(4-Chlorophenyl)-6a,7,9,10-tetrahydro-6H,12H-pyrido[2″,3″:4′,5′]pyrrolo[1′,2′:4,5]pyrazino[2,1-c][1,4]oxazin-12-one]	–	–	–	–	32.1 nM	731 nM	219 nM	1350 nM
O=C1c2c(C3CCCC3)c3ncccc3n2CCN1C1CC1 [Example 86, 10-Cyclopentyl-8-cyclopropyl-7,8-dihydropyrido[2′,3′:4,5]pyrrolo[1,2-a]pyrazin-9(6H)-one]	2.63 nM	18.1 nM	2.52 nM	29 nM	–	–	–	–
